# Legend:
# [1] = test system: HCC827 cells; experiment: Internalization of antibodies targeting EGFR and/or MET in HCC827 cells; type: cell-based, human; settings: HCC827, 1 hour
# Procedure: (§1) Anti-EGFR antibodies, anti-MET antibodies, or anti-EGFR/MET bispecific antibodies, together with the pHAb-Goat anti-human IgG secondary antibody were added to NCI-H1975 cells (ATCC, Reference No.: CRL-5908), HCC827 cells (ATCC, Reference No.: CRL-2868) and NCI-H292 (ATCC, Reference No.: CRL-1848) cells, respectively, and incubated for 1 hour. The cells were centrifuged and washed with FACS buffer. MFI was measured using a flow cytometer. Endocytosis rates of antibodies were calculated. For isotype control (ISO), an antibody targeting an irrelevant target protein was used.
# [2] = target: T1, human MET (hMET-His) (Homo sapiens, UniProt P08581); experiment: SPR binding affinity of anti-MET antibodies to hMET-His
# T1 construct: His; purchased ACROBiosystems Inc. MET-H5227
# Excerpt: (§2) In another similar experiment, the binding affinity of anti-MET antibodies M-6D12, M-6E6, M-7D3, M-819, M-8E2 and M-8H10 to hMET-His, fasMET-His or dMET-His (His-tagged dog MET, Sino, Cat #:70008-D08H) was verified. Telisotuzumab analog was used as a positive control.
# [3] = test system: NCI-H292 cells; experiment: Internalization of antibodies targeting EGFR and/or MET in NCI-H292 cells; type: cell-based, human; settings: NCI-H292, 1 hour
# Procedure: as §1
# [4] = target: monkey EGFR (fasEGFR-His); experiment: SPR binding activity of anti-EGFR/MET bispecific antibodies to fasEGFR-His; settings: Table 15
# Excerpt: (§3) Dissociation was monitored for 400 seconds.
# [5] = target: human EGFR (hEGFR-His) (Homo sapiens, UniProt P00533); experiment: SPR binding activity of anti-EGFR/MET bispecific antibodies to hEGFR-His; settings: Table 15
# [6] = target: T1, human MET (hMET-His); experiment: SPR binding activity of anti-EGFR/MET bispecific antibodies to hMET-His; settings: Table 15
# Excerpt: as §3
# [7] = target: T2, dog MET (dMET-His) (Canis lupus familiaris, UniProt Q75ZY9); experiment: SPR binding affinity of anti-MET antibodies to dMET-His
# T2 construct: His; purchased Sino 70008-D08H
# Excerpt: as §2
# [8] = test system: SNU-5 cells; experiment: Internalization (endocytosis) in SNU-5 cells, pHAb secondary antibody, flow cytometry; type: cell-based, human; settings: 2.5 μg/ml, 1 hour
# Procedure: Anti-EGFR antibodies (2.5 μg/ml) and pHAb-Goat Anti-Human IgG secondary antibody (Promega (Beijing) Biotech Co., Ltd., Cat #: G9845) were added to SNU-5 cells (ATCC, Reference No.: CRL-5973). After incubating at 37° C. and 5% CO2 for 1 hour, the cells were centrifuged and washed with FACS buffer. The mean fluorescence intensity (MFI) values were measured using a flow cytometer, and the endocytosis rates of the anti-EGFR antibodies were calculated.
# Anti-MET antibodies ([…]) and pHAb-GoatAnti-Human IgG Antibody (Promega (Beijing) Biotech Co., Ltd., Cat #: G9845) were added to SUN-5 cells. After incubating for 1 hour, the cells were centrifuged and washed with FACS buffer. The MFI values were measured using a flow cytometer, and the endocytosis rates of the anti-MET antibodies were calculated.
# The secondary antibody used in the experiment was: pHAb-AffiniPure Fab Fragment Goat Anti-Human IgG (Jackson Immuno Research, Cat #: 109-007-008).
# [9] = test system: monkey MET (fasMET-His); experiment: SPR binding activity of anti-EGFR/MET bispecific antibodies to fasMET-His; settings: Table 15
# Excerpt: as §3
# [10] = test system: monkey MET (fasMET-His); experiment: SPR binding affinity of anti-MET antibodies to fasMET-His
# Excerpt: as §2
# monkey MET (fasMET-His), sequence (as listed by the source): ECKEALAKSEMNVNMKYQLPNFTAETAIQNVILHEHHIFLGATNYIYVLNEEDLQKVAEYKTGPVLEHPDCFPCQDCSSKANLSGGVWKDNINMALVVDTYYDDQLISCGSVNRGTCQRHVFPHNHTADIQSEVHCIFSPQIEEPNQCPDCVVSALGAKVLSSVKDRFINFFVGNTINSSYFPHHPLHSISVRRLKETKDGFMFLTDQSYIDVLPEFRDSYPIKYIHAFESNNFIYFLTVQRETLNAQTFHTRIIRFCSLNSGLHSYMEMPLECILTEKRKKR
# monkey MET (fasMET-His), sequence (as listed by the source): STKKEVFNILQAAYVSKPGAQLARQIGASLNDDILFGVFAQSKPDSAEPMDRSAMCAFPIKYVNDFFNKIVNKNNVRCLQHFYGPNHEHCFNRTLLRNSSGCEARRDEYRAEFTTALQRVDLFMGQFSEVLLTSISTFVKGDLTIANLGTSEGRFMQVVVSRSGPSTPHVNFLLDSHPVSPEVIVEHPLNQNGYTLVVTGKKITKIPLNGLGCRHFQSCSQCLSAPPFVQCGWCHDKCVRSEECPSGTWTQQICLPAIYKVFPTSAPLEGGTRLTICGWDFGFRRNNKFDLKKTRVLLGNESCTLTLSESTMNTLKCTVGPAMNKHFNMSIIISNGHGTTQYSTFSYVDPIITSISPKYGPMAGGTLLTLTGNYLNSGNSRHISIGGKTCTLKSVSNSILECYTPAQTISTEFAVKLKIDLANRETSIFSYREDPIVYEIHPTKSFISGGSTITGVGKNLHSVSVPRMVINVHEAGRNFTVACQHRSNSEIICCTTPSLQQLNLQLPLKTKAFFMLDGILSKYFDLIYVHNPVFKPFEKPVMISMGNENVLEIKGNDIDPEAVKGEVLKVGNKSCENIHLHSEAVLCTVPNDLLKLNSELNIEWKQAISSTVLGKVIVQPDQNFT
# T1 sequence (P08581 25-932 limits assumed): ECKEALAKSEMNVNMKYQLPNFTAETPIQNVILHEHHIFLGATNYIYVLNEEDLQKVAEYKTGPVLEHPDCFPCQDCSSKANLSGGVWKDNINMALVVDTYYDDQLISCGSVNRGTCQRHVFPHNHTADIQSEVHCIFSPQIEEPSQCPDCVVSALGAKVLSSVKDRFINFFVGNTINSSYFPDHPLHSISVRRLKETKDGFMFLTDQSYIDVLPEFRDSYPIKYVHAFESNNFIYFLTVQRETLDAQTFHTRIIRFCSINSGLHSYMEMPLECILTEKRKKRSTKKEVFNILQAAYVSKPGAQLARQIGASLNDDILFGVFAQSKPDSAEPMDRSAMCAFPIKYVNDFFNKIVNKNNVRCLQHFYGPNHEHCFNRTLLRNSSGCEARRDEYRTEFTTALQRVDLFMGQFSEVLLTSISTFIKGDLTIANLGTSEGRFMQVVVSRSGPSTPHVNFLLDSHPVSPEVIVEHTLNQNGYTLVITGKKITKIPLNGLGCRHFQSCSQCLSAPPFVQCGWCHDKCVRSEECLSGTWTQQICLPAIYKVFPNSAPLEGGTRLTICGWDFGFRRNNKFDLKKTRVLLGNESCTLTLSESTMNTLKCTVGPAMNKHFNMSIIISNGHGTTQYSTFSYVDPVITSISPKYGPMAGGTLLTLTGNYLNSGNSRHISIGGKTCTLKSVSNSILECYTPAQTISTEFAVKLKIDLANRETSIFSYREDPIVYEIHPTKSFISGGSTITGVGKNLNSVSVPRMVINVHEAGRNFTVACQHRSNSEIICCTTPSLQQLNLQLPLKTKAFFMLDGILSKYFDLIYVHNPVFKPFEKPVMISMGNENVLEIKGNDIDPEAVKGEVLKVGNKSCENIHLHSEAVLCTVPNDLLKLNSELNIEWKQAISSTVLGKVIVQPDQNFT
# T2 sequence (Q75ZY9 25-933 limits assumed): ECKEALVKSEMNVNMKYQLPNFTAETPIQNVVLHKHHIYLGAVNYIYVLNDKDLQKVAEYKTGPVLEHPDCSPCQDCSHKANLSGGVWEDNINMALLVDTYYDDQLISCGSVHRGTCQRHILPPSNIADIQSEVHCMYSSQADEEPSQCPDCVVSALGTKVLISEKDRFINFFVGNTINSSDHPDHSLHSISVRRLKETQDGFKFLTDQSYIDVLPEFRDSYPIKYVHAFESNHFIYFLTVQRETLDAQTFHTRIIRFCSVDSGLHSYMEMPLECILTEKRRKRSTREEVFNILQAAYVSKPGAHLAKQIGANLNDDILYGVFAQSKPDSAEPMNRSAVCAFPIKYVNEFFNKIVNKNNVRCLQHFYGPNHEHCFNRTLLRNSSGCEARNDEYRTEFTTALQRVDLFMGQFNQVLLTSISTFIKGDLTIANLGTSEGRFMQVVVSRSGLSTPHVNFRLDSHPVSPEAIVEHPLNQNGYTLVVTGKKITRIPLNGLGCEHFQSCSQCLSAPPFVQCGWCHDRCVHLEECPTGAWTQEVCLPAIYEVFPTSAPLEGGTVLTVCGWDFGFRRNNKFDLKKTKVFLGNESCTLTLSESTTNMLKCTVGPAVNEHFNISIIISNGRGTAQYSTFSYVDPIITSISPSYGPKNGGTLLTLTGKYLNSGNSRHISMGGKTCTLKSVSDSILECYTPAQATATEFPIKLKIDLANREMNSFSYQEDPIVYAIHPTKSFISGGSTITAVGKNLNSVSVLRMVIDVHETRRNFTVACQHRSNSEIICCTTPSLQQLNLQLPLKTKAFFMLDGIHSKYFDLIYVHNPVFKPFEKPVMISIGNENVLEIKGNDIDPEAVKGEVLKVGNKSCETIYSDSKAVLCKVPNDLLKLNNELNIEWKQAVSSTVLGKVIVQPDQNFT
substance,measurement,setting,value
"Telisotuzumab analog: analog of Telisotuzumab, humanized IgG1 monoclonal antibody targeting MET; SEQ ID NO: 75 and 76 [reference compound]",MFI,[1],10344
same,Positive Population,[1],0.63%
same,binding to human MET,[2],showed binding affinity
same,MFI,[3],6969
same,Positive Population,[3],2.32%
same,KD,[4],No binding
same,KD,[5],No binding
same,koff,[6],0.0001 s⁻¹
same,kon,[6],103000 M⁻¹ s⁻¹
same,binding to dog MET,[7],no binding affinity
same,MFI,[8],21700
same,Percentage of Positive (endocytosis),[8],36.9%
same,koff,[9],9.41e-05 s⁻¹
same,kon,[9],62600 M⁻¹ s⁻¹
same,binding to monkey MET,[10],showed binding affinity
